Like-named read-outs stand apart in the source and are kept apart here.
Tests used:
BVDV-1 (strain PE515) = assay: Anti-BVDV assay in MDBK cells (MTS); assay type: cell-based, bovine viral diarrhea virus
Procedure: Cells and viruses: Madin-Darby Bovine Kidney (MDBK) cells were maintained in Dulbecco's modified Eagle medium (DMEM) supplemented with BVDV-free 5% fetal calf serum (DMBM-FCS) at 37° C. in a humidified, 5% CO2 atmosphere. BVDV-1 (strain PE515) was used to assess the antiviral activity in MDBK cells. Vero cells (ATCC CCL81) were maintained in MEM medium supplemented with 10% inactivated calf serum, 1% L-glutamine and 0.3% bicarbonate.
Anti-BVDV assay: Ninety-six-well cell culture plates were seeded with MDBK cells in DMEM-FCS so that cells reached 24 hr later confluency. Then medium was removed and serial 5-fold dilutions of the test compounds were added in a total volume of 100 ul, after which the virus inoculum (100 ul) was added to each well. […] Uninfected cells and cells receiving virus without compound were included in each assay plate. After 5 days, medium was removed and 90 μt of DMEM-FCS and 10 ul of MTS/PMS solution (Promega) was added to each well. Following a 2 hr incubation period at 37° C. the optical density of the wells was read at 498 nm in a microplate reader.

HEL cells [1] = settings: read-out: CC50 (HEL), HEL cells
HEL cells [2] = tested on: HEL cells
VZV (wild-type strains) = assay: Anti-VZV assay (wild-type strains): virus-induced cytopathicity in HEL cell cultures; assay type: cell-based, varicella-zoster virus; settings: HEL cell cultures
HIV [3] = assay: Time of addition experiment (HIV); assay type: cell-based
in vitro [4] = settings: monkey (simian)
in vitro [5] = settings: cat
FCV = assay: Feline corona virus assay in Feline Crandel kidney cells (MTS); assay type: cell-based; settings: Felis catus, read-out: EC50 FCV
Procedure: Feline Crandel kidney cells were seeded in 96-well microtiter plates at 24,000 cells/well. Then, 24 hrs later, an appropriate inoculum of FCV is added together with 5-fold dilutions of the test compounds. After 4 days, a MTS/PMS solution was added to each well. Following a 90 min incubation period at 37° C., the optical density of the wells was read at 498 nm in a microplate reader.

[6] = tested on: SARS virus (strain Frankfurt-1); assay: microbe, parasite or virus in culture; assay type: cell-based, human corona (SARS) virus; settings: Severe acute respiratory syndrome coronavirus, Vero, read-out: EC50 SARS virus
in vitro [7] = settings: human
murine leukemia L1210 = assay: Cytostatic activity assay, L1210 cells; assay type: cell-based; settings: read-out: IC50 L1210 (compound concentration required to inhibit tumor cell proliferation by 50%)
HIV-1 (IIIB) = assay: Inhibition of HIV-1 (IIIB)-induced cytopathicity (giant cell formation) in CEM cells; assay type: cell-based; settings: read-out: EC50 HIV-1 (concentration required to inhibit HIV-induced giant cell formation by 50%); HIV-1, CEM cell cultures
Procedure: (§1) A variety of glycopeptide antibiotic derivatives of vancomycin, eremomycin and teicoplanin including their aglycon derivatives were evaluated for their inhibitory activity against HIV-1 (IIIB) and HIV-2(ROD) in CEM cell cultures.

human lymphocyte CEM = assay: Cytostatic activity assay, CEM cells; assay type: cell-based
HIV-2(ROD) = assay: Inhibition of HIV-2 (ROD)-induced cytopathicity (giant cell formation) in CEM cells; assay type: cell-based; settings: read-out: EC50 HIV-2 (concentration required to inhibit HIV-induced giant cell formation by 50%); HIV-2, CEM cell cultures
Procedure: as §1

[8] = tested on: human lymphocyte Molt4/clone 8; assay: Cytostatic activity assay, Molt4/clone 8 cells; assay type: cell-based; settings: read-out: IC50 Molt4/C8 (compound concentration required to inhibit tumor cell proliferation by 50%)
CMV = assay: Anti-CMV assay: virus-induced cytopathicity in HEL cell cultures; settings: read-out: EC50 CMV AD-169; CMV strain AD-169, HEL cell cultures
HIV [9] = assay: Anti-HIV activity in cell culture, HIV type not distinguished; assay type: cell-based; settings: read-out: EC50 against HIV
Procedure: as §1

CCCCCCCCCCN1CCN(C(=O)C2NC(=O)C3NC(=O)C(NC(=O)C4NC(=O)C5NC(=O)C(Cc6ccc(c(Cl)c6)Oc6cc4cc(c6O)Oc4ccc(cc4Cl)C3O)NC(=O)C(N)c3ccc(O)c(c3)Oc3cc(O)cc5c3)c3ccc(O)c(c3)-c3c(O)cc(O)cc32)CC1 (stereo not shown) [Compound 126]
activity against BVDV (BVDV-1 (strain PE515)): activity
EC50 (BVDV-1 (strain PE515); MDBK cells): 12 µM
CC50 (HEL cells [1]; anti-VZV table): > 50 µM
MTC (HEL) (HEL cells [2]; anti-VZV table): >5 to 50 µM
EC50 (VZV (wild-type strains); VZV strain OKA, read-out: EC50 VZV (OKA)): 1 µM
EC50 (VZV (wild-type strains); VZV strain YS, read-out: EC50 VZV (YS)): 0.3 µM
MTC (MDBK) (MDBK cells): 60

Cc1cn([C@H]2C[C@H](N=[N+]=[N-])[C@@H](CO)O2)c(=O)[nH]c1=O [AZT, zidovudine]
time post infection up to which addition can be delayed without loss of antiviral activity (HIV [3]): at least 3 h

NC1C(=O)NC2Cc3ccc(c(Cl)c3)Oc3cc4cc(c3O)Oc3ccc(cc3Cl)C(O)C(C(=O)O)NC(=O)C(c3ccc(O)c(-c5c(O)cc(O)cc5C(N)C(=O)O)c3)NC(=O)C4NC(=O)C(NC2=O)c2cc(O)cc(c2)Oc2cc1ccc2O (stereo not shown) [Compound 172]
CC50 (in vitro [4]): > 100 µM
CC50 (in vitro [5]): > 100 µM
EC50 (FCV): ≥ 100 µM
EC50 [6]: 38 µM

COC(=O)C1NC(=O)C2NC(=O)C(NC(=O)C(N)c3cc(Oc4ccc(CC(NC(=O)OCc5ccccc5)C(=O)O)cc4Cl)c(O)c(c3)Oc3ccc(cc3Cl)C2O)c2ccc(O)c(c2)-c2c(O)cc(O)cc21 (stereo not shown) [Compound 169]
MTC (HEL) (HEL cells [2]; anti-VZV table): >200 µM
CC50 (in vitro [7]): 50 µM
EC50 (VZV (wild-type strains); Human alphaherpesvirus 3, VZV strain OKA, read-out: EC50 VZV (OKA)): 34 µM

N[C@H]1C(=O)N[C@@H]2Cc3ccc(c(Cl)c3)Oc3cc4cc(c3O)Oc3ccc(cc3Cl)[C@@H](O)[C@@H]3NC(=O)[C@H](NC(=O)[C@@H]4NC(=O)[C@@H](NC2=O)c2cc(O)cc(c2)Oc2cc1ccc2O)c1ccc(O)c(c1)-c1c(O)cc(O)cc1[C@@H](C(=O)O)NC3=O [Compound 112, Teicoplanin aglycon]
IC50 (murine leukemia L1210): > 500 µM
CC50 (HEL cells [1]; anti-CMV table): > 200 µM
EC50 (HIV-1 (IIIB)): 17 ± 3.5 µM
MTC (HEL) (HEL cells [2]; anti-CMV table): ≧20-200 μM
IC50 (human lymphocyte CEM; read-out: IC50 (toxicity in cell culture)): > 500 µM
IC50 (human lymphocyte CEM; read-out: IC50 CEM (compound concentration required to inhibit tumor cell proliferation by 50%)): > 500 µM
EC50 (HIV-2(ROD)): 20 µM
IC50 [8]: > 500 µM
EC50 (CMV): 32 µM
EC50 (HIV [9]): 17 to 20 µM
